Results taken from patent publication US20010053796A1, “Delta-aminolevulinic acid for prevention and treatment of infection microorganisms and parasite” (priority 2000, published 2001).

Experiments:
Staphylococcus epidermis = assay: Prevention effect for artificial infection (abdominal injection of bacteria); assay type: in vivo, Sebastes schlegeli; conditions: for Mortality during Cultivation: dead of 20 fish
Protocol: The water temperature was maintained at 20° C. (±2° C. ) throughout the experiment. […]
Bastardhalibut and Sebastes schlegeli were infected by […] Staphylococcus epidermis through abdominal injection with the same method of fish breeding; δ-aminolevulinic acid treatment and artificial carried out in Experiment 1 and 2. Each experimental fish was moved to fish tanks for monitoring and monitored for mortality according to infection for 2 weeks. […] The treated group, with δ-aminolevulinic acid by tank administraion method and oral administration method, has shown high viability.

Vibrio anguillarum = assay: Treatment effect of infected fry by oral administration in feed; assay type: in vivo, Bastardhalibut; conditions: 50 fish
Iridovirus = assay: Treatment effect of virus-infected fish; assay type: in vivo, Pagrus major; conditions: for mortality during 10 days: 30 fish
Text: In this present example, as carried out in Experiment 2 of Example 3, from the result that inhibition effect of virus infection in vitro by δ-aminolevulinic acid treatment was ascertained, fish whose diseases were in progress by virus infection, decrease in the mortality of infected fish body was ascertained when treated with δ-aminolevulinic acid. Pagrus major diagnosed by the PCR method among a school of Iridovirus-infected fish from a fish farm nearby Yeosu, 30 of each were separated and contained in […]. They were divided to group A, B, C and control group. Temporary changes in mortality was ascertained in 10 ppm δ-aminolevulinic acid-treated A group, 1.0 ppm δ-aminolevulinic acid-treated B group, 0.1 ppm δ-aminolevulinic acid-treated C group and untreated control group by using δ-aminolevulinic acid produced by the inventor. Each δ-aminolevulinic acid-treated group was treated 3 times in […] and 10 days results were reported. In the case of actual fish farms, the mortality by virus infection reaches up to 70%. However, as shown in the result of infected fish of Table 28, in the present experimental condition, cumulative mortality of infected fish without treatment has reached up to 50% until 10th day of experimental period. In δ-aminolevulinic acid-treated groups, low mortalities of 17%, 17% and 27% was shown in the condition of A, B and C groups during 10 days, respectively.

Edwardsiella tarda = assay: Treatment of Edwardsiella bacteria-infected fish in a fish farm; assay type: in vivo, flatfish
Text: Infected fish cultivated in the terrestrial fish tank were found in a fish farm, where flatfish (mean weight 11 g) were dying by spontaneous attack. The main source of infection was Edwardsiella tardaa. About 30˜40% of cumulative mortality per cultivating tank has shown after 5 days since the mortality started. […] On the first day, 0.1 ppm δ-aminolevulinic acid was digestion-treated in two tanks for 2 hrs and on the second and third day, 0.01 ppm δ-aminolevulinic acid was digested for 2 hrs. They were then observed, during the water was exchanged. δ-aminolevulinic acid digestion-treated tanks (about 3,000 fish) has maintained 40% cumulative mortality for 1 week after treatment, while δ-aminolevulinic acid non-treated tanks has shown 60% cumulative mortality and progressive disease was observed, more reporting 20% cumulative mortality thereafter.

Scutica = assay: Prevention effect for Scutica artificial infection of fish body in vivo; conditions: for Mortality during Cultivation: fish number 20
Protocol: The water temperature was maintained at 20° C. (±2° C.) throughout the experiment.

[1] = tested on: CHSE (Chinook Salmon Embryo); conditions: 24 h
Protocol: δ-aminolevulinic acid feed were prepared to 1.0 M concentration (0. 167 g/mL HBSS) and diluted by 10-fold dilution method. 100 μl of each fish cell line suspension of 2.5×10^5 were placed into 96-well microplate and then, 100 μl of each of the resulting diluted solution, 4 well/dilution unit, were added respectively. Fish cell lines, which were used for this cell toxicity experiment of δ-aminolevulinic acid, were RTG-2 (Rainbow Trout Gonad), FHM (Fathead Minnow Epithelioma) and CHSE (Chinook Salmon Embryo) lotted out from Dr. M. Yoshimizu of the Department of Fisheries, Hokkaido University, Japan. For these experimental cells, 100 U/mL penicillin (Sigma), 100 μl/mL streptomycin (Sigma) and MEM media supplemented with 5% fetal bovine serum (FBS, Gibco) for cell culture were used. Cultured cells in 96-well microplate was incubated for 3 hrs at 15° C. and δ-aminolevulinic acid were added to wells at amounts of 100 μl of 0, 1.0, 10, 50 and 100 mM and incubated for 24 hrs at 18° C. As a control group, instead of δ-aminolevulinic acid, HBSS was added at the same amount. […] Absorbance was measured with an ELISA reader at 570 μl.

[2] = Administration to fish tanks, 0.01 ppm, Bastardhalibut
[3] = Administration to fish tanks, 0.01 ppm, Sebastes schlegeli
[4] = Administration to fish tanks, 0.1 pm, Bastardhalibut
[5] = Administration to fish tanks, 0.1 pm, Sebastes schlegeli
[6] = Administration to fish tanks, 1.0 ppm, Bastardhalibut
[7] = Administration to fish tanks, 1.0 ppm, Sebastes schlegeli
[8] = Administration to fish tanks, 5.0 ppm, Bastardhalibut
[9] = Administration to fish tanks, 5.0 ppm, Sebastes schlegeli
[10] = Administration to fish tanks, 10 ppm, Bastardhalibut
[11] = Administration to fish tanks, 10 ppm, Sebastes schlegeli
[12] = Administration to fish tanks, 50 ppm, Bastardhalibut
[13] = Administration to fish tanks, 50 ppm, Sebastes schlegeli
[14] = Oral Adminstration, 0.1 ppm, Bastardhalibut
[15] = Oral Adminstration, 0.1 ppm, Sebastes schlegeli
[16] = Oral Adminstration, 1.0 ppm, Bastardhalibut
[17] = Oral Adminstration, 1.0 ppm, Sebastes schlegeli
[18] = Oral Adminstration, 5 ppm, Bastardhalibut
[19] = Oral Adminstration, 5 ppm, Sebastes schlegeli
[20] = Oral Adminstration, 10 ppm, Bastardhalibut
[21] = Oral Adminstration, 10 ppm, Sebastes schlegeli
[22] = Oral Adminstration, 50 ppm, Bastardhalibut
[23] = Oral Adminstration, 50 ppm, Sebastes schlegeli
[24] = Oral Adminstration, 100 ppm, Bastardhalibut
[25] = Oral Adminstration, 100 ppm, Sebastes schlegeli

With `NCC(=O)CCC(=O)O` [δ-aminolevulinic acid] the Viability (Staphylococcus epidermis; orally, 0.1 ppm in feed) was 50%, the “Mortality during Cultivation” value (Staphylococcus epidermis; orally, 0.1 ppm in feed) was 10 and the Viability (Staphylococcus epidermis; orally, 1.0 ppm in feed) was 50%. The “Mortality during Cultivation” value (Staphylococcus epidermis; orally, 1.0 ppm in feed) was 10, the Viability (Staphylococcus epidermis; orally, 10 ppm in feed) was 75% and the “Mortality during Cultivation” value (Staphylococcus epidermis; orally, 10 ppm in feed) was 5. For the same compound, the Viability (Staphylococcus epidermis; orally, 100 ppm in feed) was 80%, the “Mortality during Cultivation” value (Staphylococcus epidermis; orally, 100 ppm in feed) was 4 and the Viability (Staphylococcus epidermis; to fish tanks, 0.01 ppm) was 55%. For the same compound, the “Mortality during Cultivation” value (Staphylococcus epidermis; to fish tanks, 0.01 ppm) was 9, the Viability (Staphylococcus epidermis; to fish tanks, 0.1 ppm) was 55% and the “Mortality during Cultivation” value (Staphylococcus epidermis; to fish tanks, 0.1 ppm) was 9. The Viability (Staphylococcus epidermis; to fish tanks, 1.0 ppm) was 80%, the “Mortality during Cultivation” value (Staphylococcus epidermis; to fish tanks, 1.0 ppm) was 4 and the Viability (Staphylococcus epidermis; to fish tanks, 10 ppm) was 80%. For the same compound, the “Mortality during Cultivation” value (Staphylococcus epidermis; to fish tanks, 10 ppm) was 4, the Viability (Vibrio anguillarum; feed 0.1 ppm from 4th day of infection) was 44% and the Viability (Vibrio anguillarum; feed 1.0 ppm from 4th day of infection) was 72%. The Viability (Vibrio anguillarum; feed 50 ppm from 4th day of infection) was 90%, the Viability (Vibrio anguillarum; feed 100 ppm from 4th day of infection) was 88% and the “Viable Fish number According to Elapsed days After Treatment” value (from here on “Viable Fish number According”) (Iridovirus; 0.1 ppm, day 0) was 30. The “Viable Fish number According” value (Iridovirus; 0.1 ppm, day 1) was 25, the “Viable Fish number According” value (Iridovirus; 0.1 ppm, day 2) was 25 and the “Viable Fish number According” value (Iridovirus; 0.1 ppm, day 3) was 23. For the same compound, the “Viable Fish number According” value (Iridovirus; 0.1 ppm, day 4) was 23, the “Viable Fish number According” value (Iridovirus; 0.1 ppm, day 5) was 23 and the “Viable Fish number According” value (Iridovirus; 0.1 ppm, day 6) was 22. The “Viable Fish number According” value (Iridovirus; 0.1 ppm, day 7) was 22, the “Viable Fish number According” value (Iridovirus; 0.1 ppm, day 8) was 22 and the “Viable Fish number According” value (Iridovirus; 0.1 ppm, day 9) was 22. For the same compound, the “Viable Fish number According” value (Iridovirus; 0.1 ppm, day 10) was 22, the “Viable Fish number According” value (Iridovirus; 1.0 ppm, day 0) was 30 and the “Viable Fish number According” value (Iridovirus; 1.0 ppm, day 1) was 28. For the same compound, the “Viable Fish number According” value (Iridovirus; 1.0 ppm, day 2) was 26, the “Viable Fish number According” value (Iridovirus; 1.0 ppm, day 3) was 26 and the “Viable Fish number According” value (Iridovirus; 1.0 ppm, day 4) was 26. The “Viable Fish number According” value (Iridovirus; 1.0 ppm, day 5) was 25, the “Viable Fish number According” value (Iridovirus; 1.0 ppm, day 6) was 25 and the “Viable Fish number According” value (Iridovirus; 1.0 ppm, day 7) was 25. For the same compound, the “Viable Fish number According” value (Iridovirus; 1.0 ppm, day 8) was 25, the “Viable Fish number According” value (Iridovirus; 1.0 ppm, day 9) was 25 and the “Viable Fish number According” value (Iridovirus; 1.0 ppm, day 10) was 25. For the same compound, the “Viable Fish number According” value (Iridovirus; 10 ppm, day 0) was 30, the “Viable Fish number According” value (Iridovirus; 10 ppm, day 1) was 28 and the “Viable Fish number According” value (Iridovirus; 10 ppm, day 2) was 26. For the same compound, the “Viable Fish number According” value (Iridovirus; 10 ppm, day 3) was 26, the “Viable Fish number According” value (Iridovirus; 10 ppm, day 4) was 26 and the “Viable Fish number According” value (Iridovirus; 10 ppm, day 5) was 26. For the same compound, the “Viable Fish number According” value (Iridovirus; 10 ppm, day 6) was 26, the “Viable Fish number According” value (Iridovirus; 10 ppm, day 7) was 25 and the “Viable Fish number According” value (Iridovirus; 10 ppm, day 8) was 25. The “Viable Fish number According” value (Iridovirus; 10 ppm, day 9) was 25, the “Viable Fish number According” value (Iridovirus; 10 ppm, day 10) was 25 and the “mortality during 10 days” value (Iridovirus; A group, 10 ppm) was 17%. The “mortality during 10 days” value (Iridovirus; B group, 1.0 ppm) was 17%, the “mortality during 10 days” value (Iridovirus; C group, 0.1 ppm) was 27% and the Cumulative mortality (Edwardsiella tarda; digestion 0.1 ppm day 1, 0.01 ppm days 2 and 3, 2 hrs, maintained for 1 week after treatment) was 40%. The Cumulative mortality (Edwardsiella tarda; digestion-treated groups in progressive disease, end result (non-treated 80%)) was “about 40%”, the “Viablity (%)” value (Scutica; [2]) was 60% and the “Mortality during Cultivation” value (Scutica; [2]) was 8. The “Viablity (%)” value (Scutica; [3]) was 60%, the “Mortality during Cultivation” value (Scutica; [3]) was 8 and the “Viablity (%)” value (Scutica; [4]) was 75%. For the same compound, the “Mortality during Cultivation” value (Scutica; [4]) was 7, the “Viablity (%)” value (Scutica; [5]) was 60% and the “Mortality during Cultivation” value (Scutica; [5]) was 8. The “Viablity (%)” value (Scutica; [6]) was 75%, the “Mortality during Cultivation” value (Scutica; [6]) was 5 and the “Viablity (%)” value (Scutica; [7]) was 70%. The “Mortality during Cultivation” value (Scutica; [7]) was 6, the “Viablity (%)” value (Scutica; [8]) was 85% and the “Mortality during Cultivation” value (Scutica; [8]) was 3. For the same compound, the “Viablity (%)” value (Scutica; [9]) was 85%, the “Mortality during Cultivation” value (Scutica; [9]) was 3 and the “Viablity (%)” value (Scutica; [10]) was 85%. For the same compound, the “Mortality during Cultivation” value (Scutica; [10]) was 3, the “Viablity (%)” value (Scutica; [11]) was 85% and the “Mortality during Cultivation” value (Scutica; [11]) was 3. The “Viablity (%)” value (Scutica; [12]) was 80%, the “Mortality during Cultivation” value (Scutica; [12]) was 4 and the “Viablity (%)” value (Scutica; [13]) was 80%. The “Mortality during Cultivation” value (Scutica; [13]) was 4, the “Viablity (%)” value (Scutica; [14]) was 70% and the “Mortality during Cultivation” value (Scutica; [14]) was 6. The “Viablity (%)” value (Scutica; [15]) was 65%, the “Mortality during Cultivation” value (Scutica; [15]) was 7 and the “Viablity (%)” value (Scutica; [16]) was 70%. The “Mortality during Cultivation” value (Scutica; [16]) was 6, the “Viablity (%)” value (Scutica; [17]) was 75% and the “Mortality during Cultivation” value (Scutica; [17]) was 5. For the same compound, the “Viablity (%)” value (Scutica; [18]) was 85%, the “Mortality during Cultivation” value (Scutica; [18]) was 3 and the “Viablity (%)” value (Scutica; [19]) was 85%. For the same compound, the “Mortality during Cultivation” value (Scutica; [19]) was 3, the “Viablity (%)” value (Scutica; [20]) was 95% and the “Mortality during Cultivation” value (Scutica; [20]) was 1. For the same compound, the “Viablity (%)” value (Scutica; [21]) was 95%, the “Mortality during Cultivation” value (Scutica; [21]) was 1 and the “Viablity (%)” value (Scutica; [22]) was 95%. The “Mortality during Cultivation” value (Scutica; [22]) was 1, the “Viablity (%)” value (Scutica; [23]) was 95% and the “Mortality during Cultivation” value (Scutica; [23]) was 1. The “Viablity (%)” value (Scutica; [24]) was 90%, the “Mortality during Cultivation” value (Scutica; [24]) was 2 and the “Viablity (%)” value (Scutica; [25]) was 95%. For the same compound, the “Mortality during Cultivation” value (Scutica; [25]) was 1 and the “safe range of toxicity” value [1] was “below 10 mM”.
